Measured values from PMC8777799, “Anti-α-Glucosidase and Antiglycation Activities of α-Mangostin and New Xanthenone Derivatives: Enzymatic Kinetics and Mechanistic Insights through In Vitro Studies” (Molecules, 2022).
pKi: −log10 of the molar value.

Target: α-glucosidase
Assay: pNPG colorimetric enzyme kinetics (Lineweaver–Burk; IC50 […]), supported by fluorescence quenching and circular dichroism
Assay type: biochemical, Saccharomyces cerevisiae

With `COc1c(O)cc2oc3cc(O)c(CC=C(C)C)c(O)c3c(=O)c2c1CC=C(C)C` [α-mangostin, 1,3,6-trihydroxy-7-methoxy-2,8-bis(3-methylbut-2-en-1-yl)-9H-xanthen-9-one] the pKi was 4.52.
